Numbered stars: 1 amine (or outer) side, 2 acyl side, 3 side chain; on linkers, the order of the positions; unused ones are H or OH. Bridge positions count the residues as written; N and C are the ends. Square brackets hold non-standard residues; d marks the D form. Peptide text beside a SMILES is read from it. * marks the point of attachment. hPhe(3-Cl-4-CF3) = N[C@@H](CCc1ccc(C(F)(F)F)c(Cl)c1)C(=O)O; hPhe(3-F,4-CF3) = N[C@@H](CCc1ccc(C(F)(F)F)c(F)c1)C(=O)O; NEtPhe(4-CF3) = CCN[C@@H](Cc1ccc(C(F)(F)F)cc1)C(=O)O; hPhe(4-CF3) = N[C@@H](CCc1ccc(C(F)(F)F)cc1)C(=O)O; NMePhe(4-Cl) = CN[C@@H](Cc1ccc(Cl)cc1)C(=O)O; NMedβ3hAla = C[C@H](CC(=O)[*:2])N(C)[*:1]; NMeGly(cPent) = CN[C@H](C(=O)O)C1CCCC1; NMeGly(cBu) = CN[C@H](C(=O)O)C1CCC1; NMeCha = CN[C@@H](CC1CCCCC1)C(=O)O; X4 = C#CC[C@H](CC(=O)[*:2])N[*:1]; Hyp = O=C(O)[C@@H]1C[C@@H](O)CN1; NMeI = CC[C@H](C)[C@H](NC)C(=O)O; NMeD = CN[C@@H](CC(=O)O)C(=O)O; NMeL = CN[C@@H](CC(C)C)C(=O)O; NMeV = CN[C@H](C(=O)O)C(C)C; NMeS = CN[C@@H](CO)C(=O)O; NMeA = CN[C@@H](C)C(=O)O; Piperidide = C1CCN(*)CC1; Ac5c = NC1(C(=O)O)CCCC1; Aze = O=C(O)[C@@H]1CCN1; Cyclopropyl = C1CC1*; Sar = CNCC(=O)O

In the experiment the target is protein-protein interaction between Kras and SOS1 (biotin-tagged human Kras loaded with GDP, His-tagged human SOS1) (Homo sapiens (Human), UniProt P01116, G12D). The experiment in a line: Protein-protein interaction inhibition between Kras and SOS1 (KrasG12D-SOS PPI) using AlphaScreen.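 Note: kras produced in E. coli, Ni-coupled donor beads and streptavidin acceptor beads, excitation 680 nm with emission detected at 520–620 nm via singlet oxygen transfer.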 Format: biochemical. The conditions noted are these: AlphaScreen; biotin-tagged human Kras loaded with GDP, His-tagged human SOS1; read-out: KRAS G12D-SOS PPI IC50.
Regarding `C#CC[C@@H]1CC(=O)N(C)[C@@H](C(C)C)C(=O)N[C@@H]([C@@H](C)CC)C(=O)N(C)CC(=O)N(C)CC(=O)N(C)[C@@H](Cc2ccc(Cl)cc2)C(=O)N(C)CC(=O)N[C@@H](CCc2ccc(C(F)(F)F)cc2)C(=O)N(C)[C@@H](CC(C)C)C(=O)NC2(CCCC2)C(=O)N(C)[C@@H](CC(C)C)C(=O)N1` [Compound 669] (cyclo([Ac5c][NMeL][X4][NMeV]I[Sar][Sar][NMePhe(4-Cl)][Sar][hPhe(4-CF3)][NMeL])), the IC50 came out at 220 nM. As for `CC[C@H](C)[C@@H]1NC(=O)[C@H](CC(C)C)N(C)C(=O)C[C@@H](C(=O)N2CCCCC2)N(C)C(=O)[C@H](C2CCC2)N(C)C(=O)C2(CCCC2)NC(=O)[C@@H]2CCCN2C(=O)[C@H](CCc2ccc(C(F)(F)F)c(Cl)c2)NC(=O)CN(C)C(=O)[C@H](CC2CCCCC2)N(C)C(=O)[C@@H]2CCN2C(=O)[C@H](C)N(C)C1=O` [Compound 672] ([NMeL]I[NMeA][Aze][NMeCha][Sar][hPhe(3-Cl-4-CF3)]P[Ac5c][NMeGly(cBu)][NMeD]-Piperidide; lactam N-11), the concentration for half-maximal inhibition (IC50) was 2.5 nM. `CCO[C@@H]1C[C@H]2C(=O)NC3(CCCC3)C(=O)N(C)[C@@H]([C@@H](C)CC)C(=O)N(C)[C@H](C)CC(=O)N(C)[C@@H](CC(C)C)C(=O)N[C@@H]([C@@H](C)CC)C(=O)N[C@@H](C)C(=O)N3CC[C@H]3C(=O)N(CC)[C@@H](Cc3ccc(C(F)(F)F)cc3)C(=O)N(C)CC(=O)N[C@@H](CCc3ccc(C(F)(F)F)c(Cl)c3)C(=O)N2C1` [Compound 673] (cyclo(A[Aze][NEtPhe(4-CF3)][Sar][hPhe(3-Cl-4-CF3)][Hyp](Et)[Ac5c][NMeI][NMedβ3hAla][NMeL]I)): the IC50 came to 11 nM. In the case of `CC[C@H](C)[C@@H]1NC(=O)[C@H](CC(C)C)N(C)C(=O)C[C@@H](C(=O)N2CCCCC2)N(C)C(=O)[C@H]([C@@H](C)CC)N(C)C(=O)C2(CCCC2)NC(=O)[C@@H]2CCCN2C(=O)[C@H](CCc2ccc(C(F)(F)F)c(F)c2)NC(=O)CN(C)C(=O)[C@H](C2CCCC2)N(C)C(=O)[C@@H]2CCN2C(=O)[C@H](C)N(C)C1=O` [Compound 674] ([NMeL]I[NMeA][Aze][NMeGly(cPent)][Sar][hPhe(3-F,4-CF3)]P[Ac5c][NMeI][NMeD]-Piperidide; lactam N-11), the IC50 was found to be 5.6 nM.

Regarding `CC[C@H](C)[C@@H]1NC(=O)[C@H](CC(C)C)N(C)C(=O)C[C@@H](C(=O)N2CCCCC2)N(C)C(=O)[C@H](C(C)C)N(C)C(=O)C2(CCCC2)NC(=O)[C@@H]2CCCN2C(=O)[C@H](CCc2ccc(C(F)(F)F)c(Cl)c2)NC(=O)CN(C)C(=O)[C@H](CC2CCCCC2)N(C)C(=O)[C@@H]2CCN2C(=O)[C@H](COC2CC2)N(C)C1=O` [Compound 676] ([NMeL]I[NMeS](Cyclopropyl)[Aze][NMeCha][Sar][hPhe(3-Cl-4-CF3)]P[Ac5c][NMeV][NMeD]-Piperidide; lactam N-11), the IC50 stood at 31 nM. Take `CC[C@H](C)[C@@H]1NC(=O)[C@H](CC(C)C)N(C)C(=O)C[C@@H](C(=O)N(C)C)NC(=O)[C@H](C2CCCC2)N(C)C(=O)C2(CCCC2)NC(=O)[C@@H]2CCCN2C(=O)[C@H](CCc2ccc(C(F)(F)F)c(Cl)c2)NC(=O)CN(C)C(=O)[C@H](CC2CCCCC2)N(C)C(=O)[C@@H]2CCN2C(=O)[C@H](C)N(C)C1=O` [Compound 677] ([NMeL]I[NMeA][Aze][NMeCha][Sar][hPhe(3-Cl-4-CF3)]P[Ac5c][NMeGly(cPent)]D-NMe2; lactam N-11): the IC50 came to 4.1 nM.

With `CC[C@H](C)[C@@H]1NC(=O)[C@H](CC(C)C)N(C)C(=O)C[C@@H](C(=O)N2CCCCC2)N(C)C(=O)[C@H](C(C)C)N(C)C(=O)C2(CCCC2)NC(=O)[C@@H]2CCCN2C(=O)[C@H](CCc2ccc(C(F)(F)F)c(Cl)c2)NC(=O)CN(C)C(=O)[C@H](Cc2ccc(Cl)cc2)N(C)C(=O)[C@@H]2CCN2C(=O)[C@H](C)N(C)C1=O` [Compound 680] ([NMeL]I[NMeA][Aze][NMePhe(4-Cl)][Sar][hPhe(3-Cl-4-CF3)]P[Ac5c][NMeV][NMeD]-Piperidide; lactam N-11), the half-inhibitory concentration (IC50) is 9.9 nM.
